In general, DC50 refers to the concentration giving 50% degradation. A lower DC50 goes with a more potent degrader.

Read-outs that look alike come from different tables or passages of the source.

The source of these data is patent US20240246977A1, “DEGRADATION OF BRUTON'S TYROSINE KINASE (BTK) BY CONJUGATION OF BTK INHIBITORS WITH E3 LIGASE LIGAND AND METHOD OF USE” (BeiGene Switzerland GmbH, priority 2021, published 2024).

For one assay, the target named is BTK (Homo sapiens, UniProt Q06187). Briefly: BTK cell degradation in TMD-8 cells, HTRF assay. The class given is cell-based. On the set-up: endogenous in cells; host or cells: TMD-8 cells. The settings on record: 6 h treatment, IC50 (DC50) of BTK degradation. How it is done:
TMD-8 cells were treated with compounds diluted in 0.2% DMSO, dilution was done according to the following protocol: (1) making 500× stock solution in DMSO from 1 mM by 6-fold dilution, total 8 doses were included; (2) making 2× solution in cell culture medium by transferring 0.5 μl 500× stock solution into 125 μl medium; (3) adding 15 μl of 2× solution to cells for incubation of 6 h.
After 6 h treatment, 10 μl 14×lysis buffer was added to each well; the plate was sealed and incubated for 30 min at room temperature on a plate shaker; Once the cells was lysed, 16 μL of cell lysate were transferred to a PE 384-well HTRF detection plate; 4 μL of pre-mixed HTRF antibodies were added to each well; the plate was covered with a plate sealer, and then spinned at 1000 rpm for 1 min, then incubated overnight at room temperature; the results were read on BMG PheraStar with HTRF protocol (337 nm-665 nm-620 nm).
The inhibition (degradation) percentage of the compound was calculated by the following equation: Inhibition percentage of Compound=100−100×(Signal-low control)/(High control-low control), wherein signal=each test compound group
High control=Cell group with added DMSO and without compound, indicating microplate readings without BTK degradation;
Dmax is the maximum percentage of inhibition (degradation).
The IC50 (DC50) value of a compound can be obtained by fitting the following equation
Y=Bottom+(TOP−Bottom)/(1+((IC50/X)^hillslope))
(§1) wherein, X and Y are known values, and IC50, Hillslope, Top and Bottom are the parameters obtained by fitting with software. Y is the inhibition percentage (calculated from the equation), X is the concentration of the compound; IC50 is the concentration of the compound when the 50% inhibition is reached. The smaller the IC50 value is, the stronger the inhibitory ability of the compound is. Vice versa, the higher the IC50 value is, the weaker the ability the inhibitory ability of the compound is; Hillslope represents the slope of the fitted curve, generally around 1*; Bottom represents the minimum value of the curve obtained by data fitting, which is generally 0%±20%; Top represents the maximum value of the curve obtained by data fitting, which is generally 100%±20%. The experimental data were fitted by calculating and analyzing with Dotmatics data analysis software.
(In TR-FRET formats the signal depends on donor and acceptor labels being close together.)

A further assay concerns HEK-293 cells. Kind of assay: HEK-293 cytotoxicity detection (CellTiter-Glo). It counts as cell-based. The settings on record: 72 h incubation, CellTiter-Glo luminescence, read-out: HEK293. How it is done:
HEK-293 cells were treated with compounds diluted in 0.2% DMSO, dilution was done according to the following protocol: (1) making 500× stock solution in DMSO from 5 mM by 4-fold dilution, total 8 doses were included; (2) making 2× solution in cell culture medium by transferring 0.5 ul 500× stock solution into 125 ul medium; (3) adding 50 ul of 2× solution to cells for incubation of 72 h.
25 μl of the CellTiter-Glo®Reagent [(Promega)—Cat No. G7572] was added to each well in the 96-well plate. The contents were mixed for 2 minutes on an orbital shaker to induce cell lysis. The plate was then allowed to incubate at room temperature for 10 minutes to stabilize luminescent signal. Luminescence was recorded on BMG PheraStar with luminescence protocol.
The inhibition percentage of the compound was calculated by the following equation: Inhibition percentage of Compound=100−100×(Signal-low control)/(High control-low control), wherein signal=each test compound group
High control=Cell group with added DMSO and without compound, indicating cells proliferation with no inhibition;
Imax is the maximum percentage of inhibition.
The IC50 value of a compound can be obtained by fitting the following equation
as §1, with “Wherein,” for “wherein,”
In general terms: In ATP-based viability assays light output follows the ATP content of the culture.

Sequence of BTK (Q06187 whole entry): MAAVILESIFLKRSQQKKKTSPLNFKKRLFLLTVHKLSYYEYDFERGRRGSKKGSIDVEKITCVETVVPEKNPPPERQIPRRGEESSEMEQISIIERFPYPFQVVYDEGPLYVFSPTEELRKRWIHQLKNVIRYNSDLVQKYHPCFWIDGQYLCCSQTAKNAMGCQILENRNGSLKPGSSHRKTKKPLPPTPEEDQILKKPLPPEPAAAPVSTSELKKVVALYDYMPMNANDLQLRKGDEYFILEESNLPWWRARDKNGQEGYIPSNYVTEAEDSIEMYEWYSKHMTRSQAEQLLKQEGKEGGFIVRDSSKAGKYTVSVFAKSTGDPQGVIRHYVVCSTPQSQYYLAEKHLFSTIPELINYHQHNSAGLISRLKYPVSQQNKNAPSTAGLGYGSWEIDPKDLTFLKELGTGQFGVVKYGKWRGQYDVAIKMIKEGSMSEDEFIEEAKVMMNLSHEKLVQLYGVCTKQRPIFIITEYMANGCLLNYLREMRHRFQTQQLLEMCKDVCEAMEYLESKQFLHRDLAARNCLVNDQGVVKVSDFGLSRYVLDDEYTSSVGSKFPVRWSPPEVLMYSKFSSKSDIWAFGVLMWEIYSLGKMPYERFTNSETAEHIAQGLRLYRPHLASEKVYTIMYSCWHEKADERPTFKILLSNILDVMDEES

`NC(=O)c1c(-c2ccc(C(=O)Nc3cc(C4CC4)ccn3)cc2)nn2c1Nc1ccc(N3CCN(CC4CCN(c5ccc(N6CCC(=O)NC6=O)cc5)CC4)CC3)cc1CC2` [Example B11, 2-(4-((4-cyclopropylpyridin-2-yl)carbamoyl)phenyl)-7-(4-((1-(4-(2,4-dioxotetrahydropyrimidin-1(2H)-yl)phenyl)piperidin-4-yl)methyl)piperazin-1-yl)-9,10-dihydro-4H-benzo[d]pyrazolo[1,5-a][1,3]diazepine-3-carboxamide] yielded a DC50 on BTK of 0.387 nM. Further, the IC50 in the assay with HEK-293 cells (Homo sapiens, 72 h) is over 10000 nM.

As to `Cc1c(C(=O)Nc2nc(C(F)(F)F)n[nH]2)ccc(-c2nn3c(c2C(N)=O)Nc2ccc(N4CCN(CC5CCN(c6ccc(N7CCC(=O)NC7=O)cc6)CC5)CC4)cc2CC3)c1F` [Example B85, 7-(4-((1-(4-(2,4-dioxotetrahydropyrimidin-1(2H)-yl)phenyl)piperidin-4-yl)methyl)piperazin-1-yl)-2-(2-fluoro-3-methyl-4-((3-(trifluoromethyl)-1H-1,2,4-triazol-5-yl)carbamoyl)phenyl)-9,10-dihydro-4H-benzo[d]pyrazolo[1,5-a][1,3]diazepine-3-carboxamide], at BTK, the DC50 was found to be 1.87 nM. For the same molecule, the IC50 in the assay on HEK-293 cells (Homo sapiens, 72 h) is over 10000 nM.

Take `Cc1cccc(NC(=O)c2ccc(-c3nn4c(c3C(N)=O)Nc3ccc(N5CCN(CC6CCN(c7ccc(N8CCC(=O)NC8=O)cc7)CC6)CC5)cc3CC4)cc2)n1` [Example B19, 7-(4-((1-(4-(2,4-dioxotetrahydropyrimidin-1(2H)-yl)phenyl)piperidin-4-yl)methyl)piperazin-1-yl)-2-(4-((6-methylpyridin-2-yl)carbamoyl)phenyl)-9,10-dihydro-4H-benzo[d]pyrazolo[1,5-a][1,3]diazepine-3-carboxamide]: the DC50 at BTK was 0.284 nM. In addition, in the assay with HEK-293 cells (Homo sapiens, 72 h), the IC50 was over 10000 nM.

`COc1ccccc1C(=O)N[C@H](C)c1ccc(-c2nn3c(c2C(N)=O)Nc2ccc(N4CCN(CC5CCN(c6ccc(N7CCC(=O)NC7=O)cc6)CC5)CC4)cc2CC3)cc1` [Example C14, (R)-7-(4-((1-(4-(2,4-dioxotetrahydropyrimidin-1(2H)-yl)phenyl)piperidin-4-yl)methyl)piperazin-1-yl)-2-(4-(1-(2-methoxybenzamido)ethyl)phenyl)-9,10-dihydro-4H-benzo[d]pyrazolo[1,5-a][1,3]diazepine-3-carboxamide]: half-maximal degradation on BTK (DC50) was put at 2.76 nM. In addition, the IC50 in the assay with HEK-293 cells (Homo sapiens, 72 h) is over 10000 nM.

`Cc1c(C(=O)Nc2ccn(C)n2)ccc(-c2nn3c(c2C(N)=O)Nc2ccc(N4CCN(CC5CCN(c6ccc(N7CCC(=O)NC7=O)cc6)CC5)CC4)cc2CC3)c1F` [Example B82, 7-(4-((1-(4-(2,4-dioxotetrahydropyrimidin-1(2H)-yl)phenyl)piperidin-4-yl)methyl)piperazin-1-yl)-2-(2-fluoro-3-methyl-4-((1-methyl-1H-pyrazol-3-yl)carbamoyl)phenyl)-9,10-dihydro-4H-benzo[d]pyrazolo[1,5-a][1,3]diazepine-3-carboxamide]: the DC50 at BTK turned out to be 4.1 nM. The IC50 in the assay with HEK-293 cells (Homo sapiens, 72 h) was over 10000 nM.

`NC(=O)c1c(-c2ccc(Oc3ccccc3)cc2)nn2c1Nc1ccc(NCC3CCN(c4ccc5c(c4)C(=O)N(C4CCC(=O)NC4=O)C5=O)CC3)cc1CC2` (stereo not drawn) [Example A3, 7-(((1-(2-(2,6-dioxopiperidin-3-yl)-1,3-dioxoisoindolin-5-yl)piperidin-4-yl)methyl)amino)-2-(4-phenoxyphenyl)-9,10-dihydro-4H-benzo[d]pyrazolo[1,5-a][1,3]diazepine-3-carboxamide] gave a DC50 at BTK of 20.6 nM. In the assay with HEK-293 cells (Homo sapiens, 72 h), the IC50 was over 10000 nM.

With `NC(=O)c1c(-c2ccc(Oc3ccccc3)cc2)nn2c1Nc1ccc(NC(=O)C3CCN(CC4CCN(c5ccc6c(c5)C(=O)N(C5CCC(=O)NC5=O)C6=O)CC4)CC3)cc1CC2` (stereo not drawn) [Example A4, 7-(1-((1-(2-(2,6-dioxopiperidin-3-yl)-1,3-dioxoisoindolin-5-yl)piperidin-4-yl)methyl)piperidine-4-carboxamido)-2-(4-phenoxyphenyl)-9,10-dihydro-4H-benzo[d]pyrazolo[1,5-a][1,3]diazepine-3-carboxamide], the DC50 at BTK came to 1.26 nM. Moreover, the IC50 with HEK-293 cells (Homo sapiens, 72 h) was determined as 78.1 nM.

Take `Cc1cccc(NC(=O)c2ncc(-c3nn4c(c3C(N)=O)Nc3ccc(N5CCN(C6CC(c7ccc(C8CCC(=O)NC8=O)cc7)C6)CC5)cc3CC4)cc2C)n1` (stereo in doubt) [Example B35, (S)-7-(4-(3-(4-(2,6-dioxopiperidin-3-yl)phenyl)cyclobutyl)piperazin-1-yl)-2-(5-methyl-6-((6-methylpyridin-2-yl)carbamoyl)pyridin-3-yl)-9,10-dihydro-4H-benzo[d]pyrazolo[1,5-a][1,3]diazepine-3-carboxamide]: it took 10.6 nM to reach half-maximal degradation on BTK (DC50). Moreover, the IC50 in the assay on HEK-293 cells amounted to 97.4 nM.

`COc1cccc(OC)c1C(=O)NCc1ccc(-c2nn3c(c2C(N)=O)Nc2ccc(N4CCN(CC5CCN(c6ccc(N7CCC(=O)NC7=O)cc6)CC5)CC4)cc2CC3)cc1` [Example C22, 2-(4-((2,6-dimethoxybenzamido)methyl)phenyl)-7-(4-((1-(4-(2,4-dioxotetrahydropyrimidin-1(2H)-yl)phenyl)piperidin-4-yl)methyl)piperazin-1-yl)-9,10-dihydro-4H-benzo[d]pyrazolo[1,5-a][1,3]diazepine-3-carboxamide] yielded a DC50 at BTK of 2.12 nM. Moreover, in the assay on HEK-293 cells (Homo sapiens, 72 h), the IC50 was over 10000 nM.

Take `NC(=O)c1c(-c2ccc(C(=O)Nc3cc(C(F)(F)F)ccn3)cc2)nn2c1Nc1ccc(N3CCN(CC4CCN(c5ccc(N6CCC(=O)NC6=O)cc5)CC4)CC3)cc1CC2` [Example B12, 7-(4-((1-(4-(2,4-dioxotetrahydropyrimidin-1(2H)-yl)phenyl)piperidin-4-yl)methyl)piperazin-1-yl)-2-(4-((4-(trifluoromethyl)pyridin-2-yl)carbamoyl)phenyl)-9,10-dihydro-4H-benzo[d]pyrazolo[1,5-a][1,3]diazepine-3-carboxamide]: the DC50 at BTK amounted to 5.82 nM. The IC50 with HEK-293 cells (Homo sapiens, 72 h) was over 10000 nM.

Molecule `Cc1cccc(NC(=O)c2ccc(-c3nn4c(c3C(N)=O)Nc3ccc(N5CCN(C6CC(c7ccc(N[C@@H]8CCC(=O)NC8=O)cc7)C6)CC5)cc3CC4)c(F)c2C)n1` (stereo partly drawn) [Example B71, (R)-7-(4-(3-(4-((2,6-dioxopiperidin-3-yl)amino)phenyl)cyclobutyl)piperazin-1-yl)-2-(2-fluoro-3-methyl-4-((6-methylpyridin-2-yl)carbamoyl)phenyl)-9,10-dihydro-4H-benzo[d]pyrazolo[1,5-a][1,3]diazepine-3-carboxamide] came in with a DC50 at BTK of 7.45 nM. Also, the IC50 in the assay with HEK-293 cells (Homo sapiens, 72 h) was over 10000 nM.

In turn, `Cc1cc(-c2nn3c(c2C(N)=O)Nc2ccc(N4CCN(CC5CCN(c6ccc(N7CCC(=O)NC7=O)cc6)CC5)CC4)cc2CC3)ccc1CNC(=O)c1nc(C(C)(C)C)no1` [Example C8, 3-(tert-butyl)-N-(4-(3-carbamoyl-7-(4-((1-(4-(2,4-dioxotetrahydropyrimidin-1(2H)-yl)phenyl)piperidin-4-yl)methyl)piperazin-1-yl)-9,10-dihydro-4H-benzo[d]pyrazolo[1,5-a][1,3]diazepin-2-yl)-2-methylbenzyl)-1,2,4-oxadiazole-5-carboxamide] yielded a DC50 at BTK of 15.6 nM. Also, the IC50 in the assay on HEK-293 cells (Homo sapiens, 72 h) was over 10000 nM.
